Source: US20140271573A1, “PHARMACO-CELLULAR THERAPEUTIC METHOD FOR THE TREATMENT OF MUSCULAR DYSTROPHIES” (PONTIFICIA UNIVERSIDAD CATÓLICA DE CHILE, priority 2013, published 2014)

Assays:
C2C12 = assay: Fibronectin and collagen type III protein levels induced by TGF-β1 in C2C12 cells, immunoblot; format: cell-based, mouse; conditions: C2C12, 10 ng/ml TGF-β1, 50 μM andrographolide, 24 hrs
mdx mice = assay: Satellite cell graft into tibialis anterior of andrographolide pre-treated mdx mice; format: in vivo, mouse
Protocol: FIG. 8. Muscle stem cell therapy with satellite cells is improved by reducing the muscle fibrosis by the treatment with andrographolide. A) 3 months old mdx mice were subjected to an exercise protocol for 4 months to augment the extent of muscle fibrosis. During this period one group was treated with andrographolide or vehicle (i.p. injections 3 time per week, 6 animal per group). 1 week after the last drug administration (7 month old mice), 500 freshly isolated satellite cells (SC) purified from WT mice were transplanted in both tibialis anterior muscle of each mdx mouse. 4 weeks after the engraftment the number of fibers expressing dystrophin and collagen I were determined by immunofluorescence on cryosections. The images are representative of 2 experimental group with 6 mice per group. B) Quantification of the data obtained in A showing the number of myofibers expressing dystrophin per tibialis anterior muscle in each case. C) The number of satellite cells (PAX-7 positive nuclei) were determined on isolated single muscle fibers from extensor digitoriumlongus muscle (EDL) in each case as indicative of the endogenous SC survival.
The isolation of single myofibers were prepared essentially as described (Kelly et al., 1995, Collins 2005), briefly extensor digitorium (EDL) and soleus muscles from 6 weeks old C57-BL10 mice were dissected and digested in 0.2% (w/v) collagenase type 1 (Sigma) in DMEM (Gibco) 4 mM L-glutathatmine (Sigma) and 1% penicillin and streptomycin solution (Sigma) for […] in a 37° C. water bath. After gentle muscle trituration only single and stretched myofibers were collected in DMEM. The myofibers were washed by serial transfers in 4 dishes (pre-coated with horse serum to prevent myofiber attachment) containing DMEM. The myofibers were finally collected in DMEM containing 10% FBS, 10% horse serum, 0.5% chick embryo extract and 5 ng/ml of FGF-2 (R&D) and cultured for 30 min in a 5% CO2 cell culture incubator.
Satellite cells were separated from the myofibers by physical trituration using the method of Collins et al (2005). Briefly, the isolated intact fibers were suspended in 10 ml of complete medium and triturated with a 19 G needle mounted on a 1 ml syringe. The suspension was sequentially passed through a 70 um and 40 um cell sieve (Falcon) to remove debris. The satellite cell suspension was centrifuged for 15 min at 450 RCF. The pellet was resuspended in physiologic serum (NaCl 0.9%). An aliquot was stained with Hoechst 1 ug/ml and cholera toxin sub unit B conjugated to Alexa Fluor 488 (Invitrogen) 1 ug/ml for 5 minutes, washed with PBS and incubated with trypan blue. The double stained cells that exclude the trypan blue were counted in a hemocytometer as viable cells. The concentration of cells was adjusted to 25 cell/μl. […]

MES-13 cells = conditions: cited from earlier work
[1] = tested on: WT mice that overexpress CTGF; assay: Macrophages (F4/80 positive cells) in tibialis anterior of WT mice overexpressing CTGF by adenovirus; format: in vivo, mouse; conditions: CTGF overexpressed by adenovirus
Protocol: FIG. 3. Andrographolide modulates CTGF action in vivo. A) To augment the extent of muscle fibrosis, 3 months old mdx mice were subjected to an exercise protocol for 3 months. Along this period one group was treated with 1 mg/kg andrographolide or vehicle (i.p. injections 3 time per week, 4 animal per group). CTGF mRNA levels, a downstream TGF-β1 pro-fibrotic mediator) were determined in tibialis anterior muscle from Wild type (WT), Vehicle-Treated mdx and andrographolide-treated mdx mice by RT-qPCR using GAPDH as reference gene. Values correspond to the mean of dCT value±SD of three independent experiments, using four mice for each experimental condition and normalized to WT levels (*, P<0.05 relative to WT mice; #, P<0.05 relative to Vehicle-treated mdx mice). B) Detection of macrophages (F4/80 positive cells) through immunohistochemistry analysis in cryosections of tibialis anterior muscle from andrographolide-treated WT mice that overexpress CTGF by adenovirus (adv CTGF) infection.
For immunofluorescence, snap-frozen muscles in thawing isopentane were sectioned and cryosections (7 μm) were fixed in 4% paraformaldehyde, blocked 1 hour in 10% goat serum in PBS, incubated for one hour at room temperature with specific antibodies against fibronectin (Sigma, USA), collagen I (Chemicon, USA), F4/80 (abcam, USA), p-Smad2 (abcam, USA) and dystrophin (Santa Cruz, USA). […]

SMILES: C=C1CC[C@@H]2[C@](C)(CO)[C@H](O)CC[C@@]2(C)[C@@H]1C/C=C1/C(=O)OC[C@H]1O [andrographolide]
- collagen type III protein levels induced by TGF-β1 in vitro (C2C12): decreased
- fibronectin protein levels induced by TGF-β1 in vitro (C2C12): decreased
- increase in number of dystrophin positive fibers compared to controls (mdx mice; mdx mice pre-treated with andrographolide, 500 WT satellite cells grafted per tibialis anterior, one month after transplantation): 3 times
- collagen-I content after satellite cell transplantation (mdx mice; mdx mice pre-treated with andrographolide, one month after transplantation, immunofluorescence): clear reduction
- change in number of satellite cells present on isolated EDL myofibers (mdx mice; same transplanted mdx mice, PAX-7 positive nuclei, endogenous satellite cells): no changes
- mean satellite cells per EDL myofiber (mdx mice; same transplanted mdx mice, no change between treated and untreated): 12.5 satellite cells per EDL myofiber
- phenotypes indicating diabetic nephropathy in MES-13 cells (MES-13 cells; MES-13 cells): reduces
- antioxidant ability in a cellular environment (MES-13 cells): do not have antioxidant ability
- intracellular oxidative states (MES-13 cells; high glucose cultured MES-13 cells): reduced
- number of F4/80 (macrophage marker) positive cells [1]: reduced
